From patent US20040033944A1, “Method of treating erectile dysfunction” (priority 1999, published 2004)
Read-outs that look alike come from different tables or passages of the source.

Tests used:
adult rabbit penis = settings: intracavernosal injections of VEGF
corporal smooth muscle = settings: for Acetylcholine ED50 (−Log (M)) / Sodium Nitroprusside ED50 (−Log (M)): 10 days after injection, mean SEM
Method: (§1) Animals: Male New Zealand White rabbits weighing 2.5-3 kg were fed either a normal rabbit diet (n=12) or a 1% cholesterol diet (n=12) (Harland Teklab, Madison, Wis.) for a total of 7.5 weeks. […] Ten days after the injection, the rabbits were euthanized and underwent penectomy with meticulous dissection of the corpora cavernosa from the tunica albuginia. Total serum cholesterol was determined using the enzymatic method prior to the initiation of the experimental diet and on serum samples drawn immediately prior to the procedure. Animal care and handling complied with published Guidelines (Institute of Laboratory Animal Resources, Commission on Life Sciences, National Research Council. Guide for the Care and Use of Laboraiton Animals. Washington: National Academy Press (1996)).
Isometric tension studies. Two corporal strips from each animal were suspended in 5 ml capacity organ baths containing Krebs physiological salt solution (122 mmol/liter NaCl. 4.7 mmol/liter KCl, 1.2 mmol/liter MgCl2, 2.5 mmol/liter CaCl2, 15.4 mmol/liter NaHCO3, 1.2 mmol/liter KH2PO4, and 5.5 mmol/liter glucose) maintained at 37° C. and oxygenated with 95% O2 and 5% CO2. Strips were attached to an adjustable force transducer and isometric responses were recorded on a multi-channel polygraph (Myograph F-60; Physiograph MK111-S; Narco Bio-Systems, Houston, Tex.). […] All subsequent testing was then performed at the optimal resting tension for each strip. Strips were sub-maximally pre-contracted with 10^−5 M norepinephrine, and after a contractile plateau was reached, acetylcholine (10^−8 to 10^−3 M) or sodium nitroprusside (10^−8 to 10^−4 M) was added cumulatively in logarithmic increments. Relaxation in response to each agent is expressed as a percentage of the active tension generated by the 10^−5 M dose of norepinephrine and converted to percentage of maximal response at each dose. These values were plotted against the negative logarithm of the agonist dose to produce relaxation dose-response curves. Logistic regression analysis with logit transformation was performed on the cumulative dose response curves from each treatment group to determine the ED25. ED50 and ED75 for each agent (Finney, Statistical Method in Biological Assay (3 ed.). London: Charles Griffin and Company LTD, p. 349-369 (1978), Kim et al, J Urol 151:198-205 (1994)).
(§2) Statistical evaluation. Each treatment group contained 6 animals (corporal strip n=12). Data are expressed as the mean±standard error of the mean (SEM). The responses of strips from each treatment group to acetylcholine or sodium nitroprusside were compared using the independent samples T-Test. […] The ED50 (sensitivity) and the maximal response were the principal outcomes assessed for each agent, and adjusting for multiple comparisons each outcome was assessed at the 0.025 level. Secondary outcomes, including cholesterol level, and the ED25 and the ED75 for each agent were tested at the 0.05 level without adjustment for multiple comparisons.
(§3) The route of administration can affect the efficacy of treatments for erectile dysfunction, as is seen in the difference between intrauretheral and intracavernosal alprostadil. […] Ten days after injection isometric tension studies were performed on corporal tissue. Sensitivity and maximal relaxation to acetylcholine (ACH) and sodium nitroprusside (SNP) were compared between treatment groups.
(§4) Ten days after injection, their corpora cavernosa were harvested, and isometric tension studies were performed. Relaxation to acetylcholine (ACH) and sodium nitroprusside (SNP) was compared within each group.
Animals: 36 New Zealand White rabbits were fed either a normal rabbit diet (n=12) or a 1% cholesterol diet (n=24) (Harland Teklab, Madison, Wis.) for a total of 7.5 weeks.

[1] = system: VEGF protein expression in corporal tissue; settings: for VEGF immunoexpression: IC VEGF 0.9 mg, mean±SEM
Method: as §1, §2, §3, §4

[2] = system: trabecular smooth muscle content of corporal tissue; settings: cholesterol-fed rabbits
Method: as §1
as §2, with “Secondary outcomes, including cholesterol level, and the ED25 and the ED75 for each agent were tested at the 0.05 level without adjustment for multiple comparisons.” left out

VEGF in corporal tissue = system: VEGF in corporal tissue
Method: Animals: 36 New Zealand White rabbits were fed either a normal rabbit diet (n=12) or a 1% cholesterol diet (n=24) (Harland Teklab, Madison, Wis.) for a total of 7.5 weeks. […] Ten days after the injection, the rabbits were euthanized and underwent penectomy with meticulous dissection of the corpora cavernosa from the tunica albuginia. Total serum cholesterol was determined prior to the initiation of the experimental diet and immediately prior to the procedure.
Frozen corporal tissues were sonicated in 50 mM Tris radioimmunoprecipation assay buffer for 1 minute for protein isolation. […] The samples were quantified with a Molecular Devices Kinetic microplate reader using Apple SoftMax software. One ELISA was performed for each animal in each treatment group.
Statistical evaluation. Data are expressed as the mean standard error of the mean (SEM). […] Statistical significance was determined at the 0.05 level.

[3] = system: corpora cavernosa smooth muscle; settings: hypercholesterolemic rabbits, three weekly intracavernosal injections of VEGF
Method: Fifteen male New Zealand White rabbits weighing 2 to 2.5 kg were used in a total of two arms in the study. […] Random serum total cholesterol levels were measured at the beginning of the study and after four weeks of the 1% cholesterol diet. At the end of four weeks, each rabbit underwent total penectomy and then was sacrificed. Each penis yielded two strips of tissue with a small amount of erectile tissue being placed in neutral buffered formalin 10%. The strips were suspended in tissue baths, and isometric tension studies were performed. Dose-response curves for norepinephrine were generated first in each strip to assess adrenergic-mediated cavernosal smooth muscle contraction. Next, dose-response curves for histamine were generated to assess histamine receptor mediated contraction of cavernosal smooth muscle. Submaximal contraction was then produced with 10^−3 concentration of norepinephrine and dose-response curves were then generated to evaluate endothelial-dependent (acetylcholine) smooth muscle relaxation. Once again, a submaximal contraction was produced using 10^−5 concentration of norepinephrine and dose response curves were then generated to evaluate endothelial-independent (sodium nitroprusside) smooth muscle relaxation.
Tissue. Cavernosal tissue procurement was performed under general anesthesia induced with Ketamine 50 mg/kg SC (Ketaset, Bristol Laboratories, Syracuse, N.Y.) and Xylazine 30 mg/kg SC (Rompun, Mobay Corp., Shawnee, Kans.). The penis was excised en bloc and placed in warm Krebs solution, where the corpora cavernosa were sharply dissected from the tunica albuginea producing a strip (approximately 0.3×0.3×0.7 cm.) from each corpus. The strips were then mounted in the oxygen tissue baths. After tissue collection, the rabbits were euthanized with an overdose of intravenous sodium pentobarbitol (100 mg/kg to effect). Care was taken throughout the procedure to minimize tissue manipulation.
Tissue Chambers. Each cavernosal strip was placed in a 25 ml tissue bath (Kent Scientific Corp.. Litchfield, Conn.). One end was hooked to a tissue holder and the other end w as hooked to a force transducer (FTO3, Grass Instruments, Quincy, Mass.) for determination of isometric tension. The bath was filled with a modified Kreb's physiologic salt solution with the following millimolar composition: NaCl 122, KCl 4.7, MgCl2 1.2, CaCl2 2.5, NaHCO3 15.4, KH2PO4 1.2. and glucose 5.5. A circulating water bath kept tissue chamber temperatures at 37C. Continuous aeration with 95% oxygen and 5% carbon dioxide maintained a pH of 7.4.
Optimal isometric tension determination. Each of the force transducers was connected to a transducer positioner enabling preload tension adjustment. Following suspension in the tissue chambers, the tension was periodically adjusted (at least every fifteen minutes) until the strip equilibrated at 0.5 gm. […] The optimal preload tension was then determined by contracting the tissue with 60 mM KCl Krebs solution (prepared by substituting 60 mM of sodium with equimolar amounts of potassium in Krebs-PSS solution) at increasing levels of preload (0.5 gm. increments). […] All subsequent testing was then performed at the determined optimal resting tension for each strip: Monitoring of tension was done with a four-channel polygraph (Grass 7D, Grass Instruments).
Isometric tension studies. The tissue was washed with Kreb's solution every fifteen minutes after each study until the tissue returned to baseline (at least one hour). Dose response curves for norepinephrine were obtained by cumulative addition of norepinephrine (10^−9 to 10^−4) in logarithmic increments.

[4] = cholesterol-fed rabbits, IV VEGF 0.9 mg vs vehicle
[5] = cholesterol-fed rabbits, intracavernosal 0.9 mg VEGF at week 6, 10 days after injection, mean±SEM
[6] = cholesterol-fed rabbits, single intravenous bolus VEGF 0.9 mg vs vehicle

**Q.** For VEGF, which tumescence (adult rabbit penis) is on record?
**A.** approximately 80%

**Q.** What about the “Acetylcholine ED50 (−Log (M))” value (corporal smooth muscle; Cholesterol / IC VEGF 0.9 mg) of the same substance?
**A.** 4.94 0.25 −Log (M)

**Q.** And the “Sodium Nitroprusside ED50 (−Log (M))” value (corporal smooth muscle; Cholesterol / IC VEGF 0.9 mg)?
**A.** 6.36 0.16 −Log (M)

**Q.** What about the “Acetylcholine ED50 (−Log (M))” value (corporal smooth muscle; Cholesterol / IV VEGF 0.9 mg) of the same substance?
**A.** 6.33 0.40 −Log (M)

**Q.** And the “Sodium Nitroprusside ED50 (−Log (M))” value (corporal smooth muscle; Cholesterol / IV VEGF 0.9 mg)?
**A.** 6.93 0.25 −Log (M)

**Q.** What about the “endothelium-dependent (acetylcholine) smooth muscle relaxation, effect of VEGF treatment” value (corporal smooth muscle; cholesterol-fed rabbits, IC VEGF 0.9 mg vs vehicle) of the same substance?
**A.** not affected

**Q.** And the “SNP-mediated, direct smooth muscle relaxation, effect of IV VEGF treatment” value (corporal smooth muscle; [4])?
**A.** significantly improved

**Q.** What about the “endothelium-dependent smooth muscle relaxation, effect of IV VEGF treatment” value (corporal smooth muscle; [4]) of the same substance?
**A.** augmented

**Q.** And the “maximal relaxation to acetylcholine” value (corporal smooth muscle; [5])?
**A.** 78.6±6.2 grams

**Q.** What about the “maximal relaxation to sodium nitroprusside” value (corporal smooth muscle; [5]) of the same substance?
**A.** 113.9±6.3 grams

**Q.** And the “sensitivity (ED50) to acetylcholine relaxation” value (corporal smooth muscle; [5])?
**A.** 4.94±0.25 (−Log)(M)

**Q.** And the “sensitivity to sodium nitroprusside relaxation at ED50” value (corporal smooth muscle; [5])?
**A.** 6.36±0.16 (−Log)(M)

**Q.** What about the “sodium nitroprusside relaxation ED75” value (corporal smooth muscle; [5]) of the same substance?
**A.** 5.75±0.16 (−Log)(M)

**Q.** What about the “endothelium dependent (ACH-mediated) maximal corporal smooth muscle relaxation, effect of VEGF” value (corporal smooth muscle; [6]) of the same substance?
**A.** significantly augmented

**Q.** What about the “endothelium independent (SNP-mediated) maximal corporal smooth muscle relaxation, effect of VEGF” value (corporal smooth muscle; [6]) of the same substance?
**A.** significantly augmented

**Q.** What about the “sensitivity (ED50) to ACH, effect of VEGF” value (corporal smooth muscle; [6]) of the same substance?
**A.** enhanced

**Q.** And the “sensitivity (ED50) to SNP, effect of VEGF” value (corporal smooth muscle; [6])?
**A.** enhanced

**Q.** And the VEGF immunoexpression ([1]; cholesterol-fed animals)?
**A.** 19.67±1.38 arbitrary units

**Q.** What about the “VEGF protein immunoexpression, effect of IV VEGF” value ([1]; cholesterol-fed animals, IV VEGF 0.9 mg vs vehicle) of the same substance?
**A.** augmented

**Q.** And the VEGF immunoexpression ([1]; normal diet animals)?
**A.** 37.6±1.12 arbitrary units

**Q.** And the “VEGF expression, effect of VEGF therapy” value ([1]; single intracavernosal VEGF 0.9 mg vs vehicle)?
**A.** augmented

**Q.** And the “smooth muscle content, effect of VEGF treatment” value ([2]; IC VEGF 0.9 mg vs vehicle)?
**A.** not affected

**Q.** And the “trabecular smooth muscle content” value ([2]; IC VEGF 0.9 mg, relative to normal diet, vehicle-treated = 1.0, mean±SEM)?
**A.** 0.82±0.016 arbitrary units

**Q.** And the “VEGF ELISA optical density (OD) minus background” value (VEGF in corporal tissue; cholesterol-fed animals treated with VEGF (IC))?
**A.** 0.168

**Q.** And the “VEGF ELISA optical density (OD)” value (VEGF in corporal tissue; cholesterol-fed animals, IV VEGF administration)?
**A.** 0.128

**Q.** What about the “Acetylcholine Percent Maximal Relaxation” value [3] of the same substance?
**A.** 94.5±8.41%

**Q.** What about the “Sensitivity to Acetylcholine ED25” value [3] of the same substance?
**A.** −5.48 ± 0.33

**Q.** What about the “Sensitivity to Acetylcholine ED75” value [3] of the same substance?
**A.** −3.50 ± 0.41

**Q.** What about the “Sensitivity to Sodium Nitroprusside ED75” value [3] of the same substance?
**A.** −5.52 ± 0.18

**Q.** And the “Sodium Nitroprusside Percent Maximal Relaxation” value [3]?
**A.** 145 ± 8.26%
